For orientation: EC50 means the concentration that produces a half-maximal response. For orientation: AUC(0-inf) means total exposure, with the tail of the curve extrapolated. Read a low AUC(0-inf) as less exposure. By AUC(0-t) is commonly meant the area under the concentration-time curve up to a stated or last time point. Low readings indicate less exposure, high ones more exposure. Broadly, the Cmax is the maximum level reached in the sampled fluid or tissue. Broadly, the Tmax is the time at which the peak concentration occurs. As usually defined, the half-life is the time needed for the level to fall by half in the phase considered.

Experimental findings from patent US20240360109A1 (SHANGHAI HANSOH BIOMEDICAL CO., LTD., priority 2021, published 2024) are described below.

The target in one data set is T1, human GLP-1 receptor (Homo sapiens, UniProt P43220).
T1 construct: expressed in transfected cells
Nature of the data set: Stimulation of human GLP1 receptor stable transgenic cell line CHO-K1/GLP-1R/CRE-luc to produce cAMP (HTRF). Format: cell-based. As to conditions: cAMP production, CHO-K1/GLP-1R/CRE-luc cells, 30 minutes incubation, 0.5 mM IBMX. The source says:
I. Determination of the Ability of the Compound of the Present Invention to Stimulate Human GLP1 Receptor Stable Transgenic Cell Lines to Produce cAMP
The purpose of this test example is to determine the ability of the compound to activate the human GLP-1 receptor on the cell surface. The EC50 that stimulates […] after agonism characterizes the compound's ability to activate the human GLP-1 receptor.
The frozen human GLP1 receptor stable transgenic cell line CHO-K1/GLP-1R/CRE-luc was taken from the liquid nitrogen tank, quickly thawed in a 37° C. water bath, resuspended with DMEM/F12 medium, centrifuged, and washed once. The cells were resuspended with the experimental buffer, namely DMEM/F12 medium containing 0.1% casein, and the experimental buffer was used to adjust the cell density. The cells were spread on spread on a 384-well plate at a density of 2500 cells/5 μL/well, and then to each well was added 2.5 μL of buffer-prepared IBMX working solution with a final concentration of IBMX of 0.5 mM, and 2.5 μL of the compound sample with gradient dilution (starting at 1000 nM, 3-fold dilution, 11 concentrations). The plate was centrifuged at 1000 rpm for 1 minute, shaken for 30 seconds to mix well, and incubated at room temperature for 30 minutes. Detection was performed using the Cisbio cAMP—Gs Dynamic kit. cAMP-d2 and Anti-cAMP-Eu^3+-Cryptate were diluted 20-fold with cAMP Lysis & Detection Buffer, respectively, and mixed well. To each well was added 5 μL diluted cAMP-d2 solution, and then added 5 μL diluted Anti-cAMP-Eu3^+-Cryptate solution. The plate was shaken for 30 seconds, and incubated at room temperature for 1 hour in the dark. The signal reading of HTRF was performed using the Biotek Synergy H1 microplate reader with an excitation wavelength of 320 nm and emission wavelengths of 620 nm and 665 nm.
The signal ratio (665 nm/620 nm*10,000) was calculated, and the signal ratio and sample concentration were nonlinearly fitted using a four-parameter equation in GraphPad Prism 6 to obtain the EC50 value.
On the technique in general: TR-FRET usually uses a lanthanide donor and a delayed reading to cut background.

A short description of data set [1]: Pharmacokinetic assay of SD rats. In kind it is in vivo. As to conditions: Sprague-Dawley, rat, po; male SD rats, plasma, dose 50 mg/kg (b1219 prints 5 mg/kg). How it is done: SD rats were used as test animals. The pharmacokinetic behavior of the following example compounds was studied in the plasma of rats administered orally at a dose of 50 mg/kg.
Vehicle formula: 0.5% CMC-Na (1% Tween 80);
Three SD rats per group, male. […]
Before and after administration, 0.2 mL of blood was collected from the jugular vein at 0, 0.25, 0.5, 1, 2, 4, 6, 8 and 24 hours, placed in EDTA-K2 tubes, centrifuged at 6000 rpm at 4° C. for 6 min to separate the plasma. The plasma samples were stored at −80° C. The […] was fed 4 hours after the administration.
• 1) 160 μL of acetonitrile was added to 40 μL of the plasma sample for precipitation, and then the mixture was centrifuged at 3500×g for 5-20 min. • 2) After the above process, 100 μL of the supernatant was taken to analyze the concentration of the test compound by LC/MS/MS.
• Liquid chromatography condition: Shimadzu LC-20AD pump Mass spectrometry condition: AB Sciex API 4000 mass spectrometer Chromatographic column: phenomenex Gemiu 5 μm C18 50×4.6 mm • Mobile phase: Eluent A was 0.1% formic acid in water, and Eluent B was methanol • Flow rate: 1.0 mL/min • Elution time: 0-4.0 minutes, the eluent is as follows:
The main pharmacokinetic parameters were calculated using WinNonlin 8.2.

Data set [2] relates to GLP-1R humanized C57BL/6 mice fed with high-fat diet. Nature of the data set: Long-term administration: body weight and ingestion of GLP-1R humanized mice fed with high-fat diet. In kind it is in vivo. To be noted: HFD mice; for Weight (g)-D0 Mean: Day 0 (day of first administration, baseline), 10 mg/kg oral once a day; for Body weight change(%)-D10 Mean: Day 10 versus Day 0, 10 mg/kg oral once a day. The source says: The purpose of this test is to evaluate the effects of long-term administration of the compound on the body weight and ingestion of GLP-1R humanized C57BL/6 mice fed with high-fat diet.
C57BL/6_hGLP-1R, male, 5-8 weeks; 60% high-fat diet (HFD); Ultra-clean workbench; Electronic balance.
3.1 On the day of feeding with high-fat diet, C57BL/6 mice were randomly divided into two groups according to their weight. The first group was Blank, with 7 mice fed with normal control diet, while the remaining animals were in the modeling group, fed with high-fat diet, and continued until the end of the experiment.
3.2 At the 8th week of HFD feeding, the modeling group animals were randomly divided with 7 animals per group according to their weight. The first group was the Vehicle group (Vehicle: 0.5% CMC Na+1% Tween 80), which was given vehicle; The remaining group was the administration group; Administration regimen: Oral administration of the corresponding compound, administration cycle was 14 days, once a day for 14 days, with an administration dose of 10 mg/kg and an administration volume of 10 mL/kg. The Blank group continued to be fed with normal diet without any administration operation.
3.3 The day of administration was defined as Day 0.
3.4 During each administration, animals were weighed and data was recorded. Oral administration is performed according to body weight, with an administration volume of 10 mL/kg.
3.5 Starting from Day 0 of the experiment, the food intake of each group of mice was measured once every three days. Specifically, the feed was changed after each weighing and administration, and the added and remaining amounts were recorded.
3.6 On the end day of Day 14, all mice were euthanized sequentially according to grouping order, and the livers were dissected and weighed.
The weight and weight change rate of mice after administration were summarize and statistically analyzed. Weight change rate calculation: (BWt−BW0)/BW0×100%. BWt represents the weight of the mice on Day t of the experiment, and BW0 represents the weight of the mice on Day 0 of the experiment.
Calculation of food intake: (added amount (g)−remaining amount (g))/number of animals per cage, cumulative food intake is the sum of daily food intake of each animal during the administration period.
Experimental data were analyzed using GraphPad Prism software. The t-test method was used for comparison between the two groups. The one-way ANOVA method was used for comparisons between three or more groups.

T1 sequence (P43220 24-463): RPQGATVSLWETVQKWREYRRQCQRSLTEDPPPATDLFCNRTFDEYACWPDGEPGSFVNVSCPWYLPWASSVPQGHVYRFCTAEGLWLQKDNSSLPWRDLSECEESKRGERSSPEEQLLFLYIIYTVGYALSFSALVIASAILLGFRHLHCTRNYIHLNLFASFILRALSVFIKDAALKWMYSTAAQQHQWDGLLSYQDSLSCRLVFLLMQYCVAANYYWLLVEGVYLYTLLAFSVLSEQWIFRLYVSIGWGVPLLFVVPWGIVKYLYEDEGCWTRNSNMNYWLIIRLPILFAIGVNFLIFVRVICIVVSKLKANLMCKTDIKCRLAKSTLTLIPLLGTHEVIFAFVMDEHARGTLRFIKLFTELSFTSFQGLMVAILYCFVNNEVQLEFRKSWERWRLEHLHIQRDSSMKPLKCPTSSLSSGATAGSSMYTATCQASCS

As to `[2H]C([2H])([2H])Oc1cc(Cl)ccc1[C@H]1C=C(F)c2cccc(C3CCN(Cc4nc5ccc(C(=O)O)cc5n4C[C@@H]4CCO4)CC3)c2O1` [Example 24-A, 2-((4-((R)-2-(4-chloro-2-(methoxy-d3)phenyl)-4-fluoro-2H-chromen-8-yl)piperidin-1-yl)methyl)-1-(((S)-oxetan-2-yl)methyl)-1H-benzo[d]imidazole-6-carboxylic acid], the EC50 at human GLP-1 receptor stood at 0.05 nM.
Consider `O=C(O)c1ccc2nc(CN3CCC(c4cccc5c4OC(c4ccc(Cl)cc4F)C=C5F)CC3)n(C[C@@H]3CCO3)c2c1` (stereo partly drawn) [Example 1, 2-((4-(2-(4-Chloro-2-fluorophenyl)-4-fluoro-2H-chromen-8-yl)piperidin-1-yl)methyl)-1-(((S)-oxetan-2-yl)methyl)-1H-benzo[d]imidazole-6-carboxylic acid], for which the EC50 at human GLP-1 receptor was determined as 0.13 nM.
In the case of `O=C(O)c1ccc2nc(CN3CCC(c4cccc5c4O[C@@H](c4ccc(Cl)cc4F)C=C5F)CC3)n(C[C@@H]3CCO3)c2n1` [Example 2-A, 2-((4-((R)-2-(4-chloro-2-fluorophenyl)-4-fluoro-2H-chroman-8-yl)piperidin-1-yl)methyl)-3-(((S)-oxetan-2-yl)methyl)-3H-imidazolo[4,5-b]pyridine-5-carboxylic acid], the EC50 on human GLP-1 receptor worked out at 0.07 nM. Further, in data set [1], the AUC(0-inf) turned out to be 35800 ng·h/mL, the area under the curve AUC(0-t) amounted to 35800 ng·h/mL, the concentration peaked (Cmax) at 7160 ng/mL and the Tmax amounted to 2 h. In addition, in data set [1], the half-life is 3.1 h.
For `[2H][C@]1(c2ccc(Cl)cc2F)C=C(F)c2cccc(C3CCN(Cc4nc5ccc(C(=O)O)nc5n4C[C@@H]4CCO4)CC3)c2O1` [Example 40, 2-((4-((R)-2-(4-Chloro-2-fluorophenyl)-4-fluoro-2H-chromen-8-yl-2-d)piperidin-1-yl)methyl)-3-(((S)-oxetan-2-yl)methyl)-3H-imidazolo[4,5-b]pyridine-5-carboxylic acid], the EC50 on human GLP-1 receptor is 0.1 nM. In data set [2] (the 3rd table), the “Weight (g)-D0 Mean” value is 28.40 g and the “Body weight change(%)-D10 Mean” value is −8.49%. Also, the “Weight (g)-D10 Mean” value in data set [2] (Day 10, 10 mg/kg oral once a day, the 3rd table) came out at 26.01 g. Besides, in data set [1], the AUC(0-inf) worked out at 10800 ng·h/mL, the AUC(0-t) came to 10300 ng·h/mL, the Cmax was 2300 ng/mL and the Tmax was 1 h. Further, the half-life in data set [1] is 2 h.
For `O=C(O)c1ccc2nc(CN3CCC(c4cccc5c4OC(c4ccc(Cl)cc4F)C=C5F)CC3)n(CC3(CF)CC3)c2c1` (stereo not drawn) [Example 3, 2-((4-(2-(4-Chloro-2-fluorophenyl)-4-fluoro-2H-chromen-8-yl)piperidin-1-yl)methyl)-1-((1-(fluoromethyl)cyclopropyl)methyl)-1H-benzo[d]imidazole-6-carboxylic acid], the EC50 on human GLP-1 receptor is 0.06 nM.
Take `[2H]C([2H])([2H])Oc1cc(Cl)ccc1[C@@]1([2H])C=C(F)c2cccc(C3CCN(Cc4nc5ccc(C(=O)O)cc5n4C[C@@H]4CCO4)CC3)c2O1` [Example 49, 2-((4-((R)-2-(4-Chloro-2-(methoxy-d3)phenyl)-4-fluoro-2H-chromen-8-yl-2-d)piperidin-1-yl)methyl)-1-(((S)-oxetan-2-yl)methyl)-1H-benzo[d]imidazole-6-carboxylic acid]: the EC50 on human GLP-1 receptor was 0.08 nM.
Consider `O=C(O)c1ccc2nc(CN3CCC(c4cccc5c4O[C@@H](c4ccc(Cl)cc4F)C=C5)CC3)n(C[C@@H]3CCO3)c2c1` [Example 53], for which the EC50 at human GLP-1 receptor is 0.06 nM. Moreover, in data set [2] (the 4th table), the “Weight (g)-D0 Mean” value stood at 28.34 g and the “Body weight change(%)-D10 Mean” value is on record as −9.53%. The “Eeight (g)-D10 Mean” value in data set [2] (Day 10, 10 mg/kg oral once a day, the 4th table) is 25.65 g. For the same compound, in data set [1], the AUC(0-inf) was 21600 ng·h/mL, the AUC(0-t) stood at 21500 ng·h/mL, the highest level (Cmax) was 7980 ng/mL and the Tmax was 0.5 h. Further, the half-life in data set [1] is 2 h.
For `[2H]C([2H])([2H])Oc1cc(Cl)ccc1[C@H]1C=C(F)c2cccc(C3CCN(Cc4nc5ccc(C(=O)O)nc5n4C[C@@H]4CCO4)CC3)c2O1` [Example 23-A, 2-((4-((R)-2-(4-chloro-2-(methoxy-d3)phenyl)-4-fluoro-2H-chromen-8-yl)piperidin-1-yl)methyl)-3-(((S)-oxetan-2-yl)methyl)-3H-imidazolo[4,5-b]pyridine-5-carboxylic acid], the EC50 on human GLP-1 receptor stood at 0.07 nM.
Take `N#Cc1ccc([C@H]2C=Cc3cccc(C4CCN(Cc5nc6ccc(C(=O)O)cc6n5C[C@@H]5CCO5)CC4)c3O2)c(F)c1` [Example 52, 2-((4-((R)-2-(4-Cyano-2-fluorophenyl)-2H-chromen-8-yl)piperidin-1-yl)methyl)-1-(((S)-oxetan-2-yl)methyl)-1H-benzo[d]imidazole-6-carboxylic acid]: on human GLP-1 receptor, the EC50 is 0.05 nM. Also, in data set [1], the AUC(0-inf) worked out at 12600 ng·h/mL, the AUC(0-t) was 12600 ng·h/mL, the concentration peaked (Cmax) at 9400 ng/mL and the Tmax was found to be 1 h. This compound also showed a half-life in data set [1] of 1.6 h.
As to `[2H][C@]1(c2ccc(Cl)cc2F)C=Cc2cccc(C3CCN(Cc4nc5ccc(C(=O)O)cc5n4C[C@@H]4CCO4)CC3)c2O1` [Example 47], the 50% effective concentration (EC50) on human GLP-1 receptor worked out at 0.08 nM.
